Laboratory results as given in patent US20220314021A1, “METHOD FOR D[…] […] PHOTODYNAMIC THERAPY AND PHOTODYNAMIC THERAPY APPARATUS” (OTSUKA ELECTRONICS CO., LTD., priority 2019, published 2022).

System: Jurkat cells derived from human T-cell leukemia
Test: cell killing assay by PDT in Jurkat cells (630 nm, Cell Counting Kit-8)
Type: cell-based
Details: 5-ALA loading 0-1 mmol/L, light irradiation 30 J/cm^2, 630 nm
Experimental: For Jurkat cells derived from human T-cell leukemia which is a disease classification different from that of the human adult T-cell leukemia/lymphoma clinically, amounts of protoporphyrin IX accumulated in the cells by 5-ALA loading (0, 0.0625, 0.125, 0.25, 0.5 and 1 mmol/L) were measured using the fluorescence detection high-performance liquid chromatography method, and then light irradiation (30 J/cm^2) with a central wavelength of 630 nm was further performed as the cell killing assay by PDT, and then cell viabilities (%) using the cell counting kit (Cell Counting Kit-8) were calculated.

Compound: NCC(=O)CCC(=O)O [5-ALA, 5-aminolevulinic acid]
- cell viabilities versus the regression curve of FIG. 3: located on the regression curve described in FIG. 3
